Results from patent EP0562731A1, “Substituted pyridinesulfonamide compounds or their salts, process for preparing the same, and herbicides containing the same” (ISHIHARA SANGYO KAISHA, Ltd., priority 1992, dated 1993).

Legend:
Type in all cases: in vivo
[1] = test system: velvet leaf (Abutilon theophrasti); test: Test Example 2: foliar application pot test, visual herbicidal effect rating, single and combined herbicides; conditions: velvet leaf 1.2-leaf stage, 25 days after foliar application; also: ranges in brackets are in %
Excerpt: 1/10000-are pot was filled with upland farming soil and sown with velvet leaf (Abutilon theophrasti). When the plant reached the 1.2-leaf stage, a predetermined amount of the herbicide of the present invention diluted with 5 ℓ of water per are and admixed with 0.1 vol%, based on the aqueous solution, of an agricultural spreader ("Kusa Rino", produced by Nihon Nohyaku Co., Ltd.) was foliarly applied to the plant with a small spray gun. The herbicidal effect was visually observed 25 days after the foliar application and evaluated according to the rating system shown below.

velvet leaf [2] = test: Test Example 3: foliar application pot test, percent growth inhibition by fresh weight of aerial part and Colby's value; conditions: Abutilon theophrasti, velvet leaf 1-leaf stage, 20th day from foliar application, fresh weight of aerial part, read-out: Percent Growth Inhibition (%) Found; for inhibition at 16 g/ha: 0.16 g/a; for inhibition at 63 g/ha: 0.63 g/a
Excerpt: (§1) 1/10000-are pot was filled with upland farming soil and sown with velvet leaf. When the plant reached the 1-leaf stage, a predetermined amount of the herbicide of the present invention diluted with 5 ℓ of water per are and admixed with 0.1 vol%, based on the aqueous solution, of an agricultural spreader ("Kusa Rino") was foliarly applied to the plant with a small spray gun. On the 20th day from the application, the aerial part of the plant was weighed to obtain a percent growth inhibition according to Equation (1) (found value) and a Colby's value (calculated value) according to Equation (2) (see Weed, Vol. 15, pp. 20-22 (1967)). Percent Growth Inhibition (%) = (1 -(Fresh Weight of Aerial Part of Plant in Treated Plot)/(Fresh Weight of Aerial Part of Plant in Untreated Plot)) x 100 [formula] Colby's Value (E) = α + β -(α x β)/(100) [formula]
(§2) Wherein α represents a percent growth inhibition when treated with an amount a (g/a) of herbicide A; β represents a percent growth inhibition when treated with amount b (g/a) of herbicide B; and E represents an expected percent growth inhibition when treated with a of herbicide A and b of herbicide B.

velvet leaf [3] = test: Test Example 4: foliar application pot test, percent growth inhibition by fresh weight of aerial part and Colby's value; conditions: Abutilon theophrasti, read-out: Percent Growth Inhibition (%) Found
Excerpt: as §1, §2
1/10000-are pot was filled with upland farming soil and sown with velvet leaf. When the plant reached the 1-leaf stage, a predetermined amount of the herbicide of the present invention diluted with 5 ℓ of water per are and admixed with 0.1 vol%, based on the aqueous solution, of an agricultural spreader ("Kusa Rino") was foliarly applied to the plant with a small spray gun. On the 20th day from the application, the aerial part of the plant was weighed to obtain a percent growth inhibition and a Colby's value in the same manner as in Test Example 3.

[4] = test system: large crabgrass (Digitaria adscendens); test: Test Example 5: foliar application pot test, percent growth inhibition by fresh weight of aerial part and Colby's value; conditions: read-out: Percent Growth Inhibition (%) Found
Excerpt: as §1, §2
1/10000-are pot was filled with upland farming soil and sown with large crabgrass (Digitaria adscendens). When the plant reached the 2-leaf stage, a predetermined amount of the herbicide of the present invention diluted with 5 ℓ of water per are and admixed with 0.1 vol%, based on the aqueous solution, of an agricultural spreader ("Kusa Rino") was foliarly applied to the plant with a small spray gun. On the 20th day from the application, the aerial part of the plant was weighed to obtain a percent growth inhibition and a Colby's value in the same manner as in Test Example 3.

[5] = test system: morning glory (Ipomoea purpurea); test: Test Example 1: foliar application pot test, visual growth control rating; set-up: key: 1: the same as in an untreated plot; 10: perfect growth control; conditions: wettable powder, observed 20 to 31 days after application
Excerpt: (§3) 1/1,500 are [are (a) = 100 m²] pots were filled with upland farming soil, which in the pots was then sown with a variety of plants. The plants grown will be enumerated below.
(§4) When each plant reached a given growth stage (a 1.2- to 3.0-leaf stage for rice, primary leaf to a 0.7-leaf stage for soybean, 2.1- to 3.6-leaf stage for corn, cotyledon to 0.7-leaf stage for cotton, 2.0- to 3.0-leaf stage for wheat, 0.3- to 3.4-leaf stage for cocklebur, 0.3- to 1.6-leaf stage for morning glory, 0.1- to 1.3-leaf stage for prickly sida, 0.1- to 1.3-leaf stage for slender amaranth, 1.5- to 3.2-leaf stage for barnyard glass, and 1.2- to 3.0-leaf stage for large crabgrass), a predetermined amount of the herbicide of the present invention in the form of a wettable powder, weighed out, diluted with 5 ℓ/a of water and admixed with 0.2 or 0.1 vol%, based on the resulting composition, of an agricultural spreader, was foliarly applied to the plant with a small spray gun. The progress of growth of the plant was visually observed 20 to 31 days after the foliar application to evaluate the degree of growth control according to 10 ratings (1: the same as in an untreated plot - 10: perfect growth control).

[6] = test system: large crabgrass (Digitaria adscendens); test: as above; set-up: key: 1: the same as in an untreated plot; 10: perfect growth control; conditions: wettable powder, observed 20 to 31 days after application
Excerpt: as §3, §4

rice (Oryza sativa) = test: as above; set-up: key: 1: the same as in an untreated plot; 10: perfect growth control; conditions: wettable powder, observed 20 to 31 days after application
Excerpt: as §3, §4

[7] = test system: barnyard grass (Echinochloa crus-galli); test: as above; set-up: key: 1: the same as in an untreated plot; 10: perfect growth control; conditions: wettable powder, observed 20 to 31 days after application
Excerpt: as §3, §4

[8] = test system: slender amaranth (Amaranthus viridis); test: as above; set-up: key: 1: the same as in an untreated plot; 10: perfect growth control; conditions: wettable powder, observed 20 to 31 days after application
Excerpt: as §3, §4

corn (Zea mays) = test: as above; set-up: key: 1: the same as in an untreated plot; 10: perfect growth control; conditions: wettable powder, observed 20 to 31 days after application
Excerpt: as §3, §4

cotton (Gossypium) = test: as above; conditions: wettable powder, observed 20 to 31 days after application
Excerpt: as §3, §4

[9] = test system: cocklebur (Xanthium strumarium); test: as above; set-up: key: 1: the same as in an untreated plot; 10: perfect growth control; conditions: wettable powder, observed 20 to 31 days after application
Excerpt: as §3, §4

[10] = test system: prickly sida (Sida spinosa); test: as above; set-up: key: 1: the same as in an untreated plot; 10: perfect growth control; conditions: 1.25 g/a active ingredient, wettable powder, observed 20 to 31 days after application
Excerpt: as §3, §4

soybean (Glycine max) = test: as above; set-up: key: 1: the same as in an untreated plot; 10: perfect growth control; conditions: 1.25 g/a active ingredient, wettable powder, observed 20 to 31 days after application
Excerpt: as §3, §4

wheat (Triticum) = test: as above; set-up: key: 1: the same as in an untreated plot; 10: perfect growth control; conditions: 1.25 g/a active ingredient, wettable powder, observed 20 to 31 days after application
Excerpt: as §3, §4

CCN(c1cccc(S(=O)(=O)NC(=O)Nc2nc(C)nc(OC)n2)n1)S(=O)(=O)C(C)Cl (racemic) [Compound No. 54, 6-[[N-(1-chloroethylsulfonyl)-N-ethyl]amino]-N-[[(4-methoxy-6-methyltriazin-2-yl)amino]carbonyl]-2-pyridinesulfonamide]
Rating ([1]; 0.16 g/a): 3 (30-39)
Rating ([1]; 0.31 g/a): 5 (50-59)
Rating ([1]; 0.63 g/a): 6 (60-69)
Rating ([1]; 1.25 g/a): 8 (80-89)
inhibition at 16 g/ha (velvet leaf [2]): 19%
inhibition at 31 g/ha (velvet leaf [2]; 0.31 g/a): 52%
inhibition at 63 g/ha (velvet leaf [2]): 86%
inhibition at 16 g/ha (velvet leaf [3]; 0.16 g/a, velvet leaf 1-leaf stage, 20th day from foliar application, fresh weight of aerial part): 12%
inhibition at 31 g/ha (velvet leaf [3]; 0.31 g/a, velvet leaf 1-leaf stage, 20th day from foliar application, fresh weight of aerial part): 32%
inhibition at 63 g/ha (velvet leaf [3]; 0.63 g/a, velvet leaf 1-leaf stage, 20th day from foliar application, fresh weight of aerial part): 66%
inhibition at 16 g/ha ([4]; 0.16 g/a, foliar application, 20th day, large crabgrass): 19%
inhibition at 31 g/ha ([4]; 0.31 g/a, foliar application, 20th day, large crabgrass): 24%
inhibition at 63 g/ha ([4]; 0.63 g/a, foliar application, 20th day, large crabgrass): 77%
degree of growth control, IP ([5]; 0.31 g/a active ingredient): 9
degree of growth control, IP ([5]; 1.25 g/a active ingredient): 9
degree of growth control, DI ([6]; 0.31 g/a active ingredient): 3
degree of growth control, DI ([6]; 1.25 g/a active ingredient): 3
degree of growth control, OR (rice (Oryza sativa); 0.31 g/a active ingredient): 9
degree of growth control, OR (rice (Oryza sativa); 1.25 g/a active ingredient): 9
degree of growth control, EC ([7]; 0.31 g/a active ingredient): 10
degree of growth control, EC ([7]; 1.25 g/a active ingredient): 10
degree of growth control, AM ([8]; 0.31 g/a active ingredient): 9
degree of growth control, AM ([8]; 1.25 g/a active ingredient): 9
degree of growth control, ZE (corn (Zea mays); 0.31 g/a active ingredient): 10
degree of growth control, ZE (corn (Zea mays); 1.25 g/a active ingredient): 10

CCC(Cl)S(=O)(=O)N(CC)c1cccc(S(=O)(=O)NC(=O)Nc2nc(C)nc(OC)n2)n1 (racemic) [compound 88]
degree of growth control, GO (cotton (Gossypium); 0.31 g/a active ingredient): 6
degree of growth control, GO (cotton (Gossypium); 1.25 g/a active ingredient): 6
degree of growth control, IP ([5]; 0.31 g/a active ingredient): 10
degree of growth control, IP ([5]; 1.25 g/a active ingredient): 10
degree of growth control, EC ([7]; 0.31 g/a active ingredient): 10
degree of growth control, EC ([7]; 1.25 g/a active ingredient): 10
degree of growth control, XA ([9]; 0.31 g/a active ingredient): 10
degree of growth control, XA ([9]; 1.25 g/a active ingredient): 10
degree of growth control, ZE (corn (Zea mays); 0.31 g/a active ingredient): 10
degree of growth control, ZE (corn (Zea mays); 1.25 g/a active ingredient): 10

CSc1nnc(C(C)(C)C)c(=O)n1N [Metribuzin, 4-amino-6-(1,1-dimethylethyl)-3-(methylthio)-1,2,4-triazin-5(4H)-one, reference compound]
inhibition at 16 g/ha (velvet leaf [2]): 89%

CC(C)N1C(=O)c2ccccc2NS1(=O)=O [Bentazon, 3-(1-methylethyl)-(1H)-2,1,3-benzothiadiazin-4(3H)-one-2,2-dioxide, reference compound]
inhibition at 63 g/ha (velvet leaf [2]): 17%
inhibition at 125 g/ha (velvet leaf [2]; 1.25 g/a): 69%

CS(=O)(=O)NC(=O)c1cc(Oc2ccc(C(F)(F)F)cc2Cl)ccc1[N+](=O)[O-] [Fomesafen, 5-[2-chloro-4-(trifluoromethyl)phenoxy]-N-(methylsulfonyl)-2-nitrobenzamide]
Rating ([1]; 0.25 g/a): 3 (30-39)
Rating ([1]; 0.5 g/a): 7 (70-79)
Rating ([1]; 1.00 g/a): 7 (70-79)

CON(C)C(=O)Nc1ccc(Cl)c(Cl)c1 [Linuron, 3-(3,4-dichlorophenyl)-1-methoxy-1-methylurea, reference compound]
inhibition at 12.5 g/ha (velvet leaf [3]; foliar): 35%
inhibition at 25 g/ha (velvet leaf [3]; foliar): 61%
inhibition at 12.5 g/ha ([4]; foliar): 23%
inhibition at 25 g/ha ([4]; foliar): 68%
inhibition at 50 g/ha ([4]; foliar): 79%

CCOC(=O)c1ccccc1S(=O)(=O)NC(=O)Nc1nc(Cl)cc(OC)n1 [Chlorimuron-ethyl, ethyl 2-[[[[(4-chloro-6-methoxy-2-pyrimidinyl)amino]carbonyl]amino]sulfonyl]benzoate]
Rating ([1]; 0.02 g/a): 6 (60-69)
Rating ([1]; 0.04 g/a): 8 (80-89)
Rating ([1]; 0.08 g/a): 9 (90-99)

CCCCS(=O)(=O)N(CC(C)C)c1cccc(S(=O)(=O)NC(=O)Nc2nc(C)nc(OC)n2)n1 [compound 82]
degree of growth control, IP ([5]; 1.25 g/a active ingredient): 6
degree of growth control, DI ([6]; 1.25 g/a active ingredient): 3
degree of growth control, SI [10]: 1
degree of growth control, OR (rice (Oryza sativa); 1.25 g/a active ingredient): 4
degree of growth control, EC ([7]; 1.25 g/a active ingredient): 4
degree of growth control, AM ([8]; 1.25 g/a active ingredient): 7
degree of growth control, XA ([9]; 1.25 g/a active ingredient): 9
degree of growth control, ZE (corn (Zea mays); 1.25 g/a active ingredient): 8
degree of growth control, GL (soybean (Glycine max)): 3
degree of growth control, TR (wheat (Triticum)): 4

CCCCS(=O)(=O)N(CCC)c1cccc(S(=O)(=O)NC(=O)Nc2nc(C)nc(OC)n2)n1 [compound 42]
degree of growth control, IP ([5]; 1.25 g/a active ingredient): 4
degree of growth control, DI ([6]; 1.25 g/a active ingredient): 5
degree of growth control, SI [10]: 3
degree of growth control, OR (rice (Oryza sativa); 1.25 g/a active ingredient): 6
degree of growth control, EC ([7]; 1.25 g/a active ingredient): 3
degree of growth control, AM ([8]; 1.25 g/a active ingredient): 10
degree of growth control, XA ([9]; 1.25 g/a active ingredient): 6
degree of growth control, ZE (corn (Zea mays); 1.25 g/a active ingredient): 3
degree of growth control, GL (soybean (Glycine max)): 4
degree of growth control, TR (wheat (Triticum)): 4
